We go through 87 compounds from a melting point compilation (Tetko et al.; mined from patent text by program, amines drawn as free bases though some values may be those of a salt).

Structures are written as SMILES.

Take `CCCOc1cc(C(=O)NC2CC(C)(C)NC(C)(C)C2)ccc1-c1cc2cc(Cl)c(Cl)cc2[nH]1`: the melting point (usually the temperature of the solid-liquid transition) was over 250 °C.

Take `COC(=O)[C@@H](NC(=O)OCc1ccccc1)[C@H](O)c1ccccc1`: the melting point lay in the range of 107 to 108 °C.

As for `N#CSc1ccc(O)cc1Br`, the melting point is 91 to 92 °C.

Compound `CC(=O)Nc1c(C#N)c(OC(C)=O)c(C(C)=O)n1C` displayed a melting point of 140 to 141 °C.

In turn, `CC(=O)Nc1c(C(=O)c2occc2CO)[nH]c2cc(Cl)ccc12` gave a melting point of 196 to 198 °C.

Turning to `CC(=O)N[C@@H](CO)C(=O)NCc1ccccc1`, the melting point was in the range of 147 to 148 °C.

The compound `CCC(=O)OCC(=O)C1(OC(=O)c2ccccc2)CCC2C3CC(C)C4=CC(=O)C=CC4(C)C3C(O)CC21C` (configuration not stated) yielded a melting point of 241 °C.

Regarding `C#CCOc1cc(O)c2c(c1)OC(C)(C)CC2=O`, the melting point fell in the range of 122 to 124 °C.

On to `O=C1CCC(N2Cc3c(OCc4cc(CN5CCOCC5)co4)cccc3C2=O)C(=O)N1` (configuration not stated), for which the melting point fell in the range of 168 to 170 °C.

On to `O=C1CC2(CCOc3ccc(Cl)cc32)C(=O)N1` (configuration not stated), for which the melting point fell in the range of 225 to 226 °C.

As to `CCCOc1ccc(/C=C/C(=O)O)cc1-c1nc2c(CCC)nn(C)c2c(=O)[nH]1`, the melting point lay within 229 to 230 °C.

`CC(C)c1ccc(CCOc2ccnc3c(F)cccc23)cc1` had a melting point of 56 to 60 °C.

The compound `Nc1c2c(nc3ccccc13)-c1ccc(Cl)cc1CC2` displayed a melting point of 205 to 208 °C.

For `O=c1cc(-c2ccc(OCCOCCOCCOc3ccc(-c4cc(=O)c5c(O)cc(O)cc5o4)cc3)cc2)oc2cc(O)cc(O)c12`, the melting point is 143 to 145 °C.

For the compound `CSc1ccc2c3c(cccc13)C(=O)N2C(C)C`, the melting point lay within 70 to 71 °C.

Compound `CCCCSCC(=O)c1cc2c(cc1Cl)n(C)c(=O)n2C` registered a melting point of 66 to 68 °C.

In the case of `CCOC(=O)N1CCN(C(=O)Cn2c(-c3ccc(Cl)cc3)nc3cccnc32)CC1`, the melting point was 184 to 186 °C.

Turning to `O=C1CCc2ccc(Oc3ccc(CN4CCN(c5cccc(Cl)c5Cl)CC4)cc3)cc2N1`, the melting point was 185 to 186 °C.

The compound `COC(=O)[C@H](C)NC(=O)C(=O)Nc1ccccc1C(C)(C)C` had a melting point of 60.1 to 62.1 °C.

In turn, `C#CCOc1cc(Oc2ccccc2)ncn1` showed a melting point of 71.1 °C.

Turning to `CCOC(=O)C1=C(C)NC(C)=C(C(=O)OCCN2CCN(C(c3ccc(C)cc3)c3ccc(C)cc3)CC2)C1c1cccc([N+](=O)[O-])c1` (configuration not stated), the melting point lay within 82 to 85 °C.

On to `O=C(CS(=O)CCNC(=O)c1ccco1)NCCCOc1cccc(CN2CCCCC2)c1` (configuration not stated), for which the melting point is 101 to 102 °C.

For the compound `CCCC(=O)c1cc2c(c(Cl)c1Cl)OC(C(=O)O)C2` (configuration not stated), the melting point lay within 124 to 125 °C.

For the compound `CS(=O)(=O)N[C@@H]1CCCC[C@H]1Nc1nc(Nc2cc(F)cc3c2OCCNC3=O)ncc1Cl`, the melting point was 177 to 181 °C.

Take `CCc1nc(CCc2ccc(NC(=O)/C=C/c3cnn(C)c3-c3ccc(F)cc3)cc2)cs1`: the melting point lay in the range of 190 to 191 °C.

For the compound `CC1(C)CC(=O)OC1CC(=O)c1ccc(Cl)cc1` (configuration not stated), the melting point is 76 to 80 °C.

`CSCCC(NC(=O)c1ccc(Cl)cc1)NC(=NC#N)Nc1cccnc1` (configuration not stated): the melting point lay within 104 to 105 °C.

The compound `CC#Cc1ccccc1S(N)(=O)=O` came in with a melting point of 147 to 149 °C.

In the case of `COC(=O)c1ccccc1CS(=O)(=O)NC(=S)Nc1nc(OC)cc(OC)n1`, the melting point is 167 to 168 °C.

Take `Cc1n[nH]c(COc2nn3c(-c4ccccc4)nnc3cc2-c2ccccc2)n1`: the melting point lay within 233 to 235 °C.

The compound `Cc1ccc(C(C)N2C(=O)c3ccccc3C2=O)cc1` (configuration not stated) yielded a melting point of 65 to 66 °C.

As for `CN1CC(c2cc3ccccc3o2)CC1=O` (configuration not stated), the melting point was 73 °C.

`c1ccc(N=C2CCCCN2)c(CN2CCOCC2)c1` displayed a melting point of 108 to 110 °C.

The compound `CC(C)(C)OC(=O)N1CCN(c2ccc3ncc(Br)n3n2)CC1` registered a melting point of 176 to 179 °C.

In turn, `CSc1nc(-c2ccc(S(C)(=O)=O)cc2)n(-c2ccc(C)cc2)c(=O)c1C#N` displayed a melting point of 242 to 244 °C.

`N#C[C@H]1CC(F)(F)CN1C(=O)CNC1(CO)CCC2(CCOCC2)CC1` showed a melting point of 128 °C.

`COc1cc(C(=O)N2CCC(CCN3CCC(C(=O)c4nc5ccccc5n4Cc4ccc(C(=O)O)cc4)CC3)(c3ccccc3)C2)cc(OC)c1OC` (configuration not stated) gave a melting point of 173 to 190 °C.

`Cc1ccc(-c2c3c(cc4ccc(O)cc24)-c2ccc(O)cc2CO3)cc1C` displayed a melting point of 218 to 221 °C.

In the case of `O=Cc1c(F)cccc1N1CCN(Cc2ccccc2)CC1`, the melting point was in the range of 94 to 95 °C.

For the compound `Cc1cccc(C(=O)O)c1NC(=O)COc1ccccc1`, the melting point was 174 to 176 °C.

The compound `C/C=C(/C)c1ccc2c(c1)C(=O)N(c1ccc3c(ccn3C)c1)C2` showed a melting point of 144 to 145 °C.

As for `S=C(Nc1ccc(Cl)c(Cl)c1)Nc1ncccc1OCc1ccccc1`, the melting point lay within 144 to 146 °C.

`O=[N+]([O-])c1ccccc1Nc1nc(-c2ccccc2)cs1` showed a melting point of 114 to 116 °C.

Compound `CC(C)(C)NC(=O)Nc1nc2nc(N)ncc2cc1-c1c(Cl)cccc1Cl` yielded a melting point of 335 °C.

Compound `O=C(O)c1ccc(OCCCC2CCN(c3ccc(Cl)nn3)CC2)cc1` returned a melting point of 209 °C.

In the case of `COCC(C)Oc1cc(Oc2ccc(S(C)(=O)=O)nc2)cc2cc(C3=NCC(CC(N)=O)S3)[nH]c12` (configuration not stated), the melting point lay in the range of 131 to 132 °C.

As for `Cc1ccc(-c2cc(C=O)ccn2)cc1`, the melting point was determined as 66 °C.

In turn, `COC(=O)c1ccc(CC(C)=O)cc1` came in with a melting point of 40 to 47 °C.

As to `Cc1ccc(C(=O)NCC(O)CO)cc1-n1c(C)cc(OCc2ccccc2CNC(=O)Nc2cc(C(C)(C)C)nn2-c2ccc(O)c(Cl)c2)c(Cl)c1=O` (configuration not stated), the melting point lay in the range of 173 to 175 °C.

As to `CC1CCC(=NN)c2ncc(C(N)=O)c(=O)n21` (configuration not stated), the melting point is 248 to 250 °C.

Compound `COc1ccc(CNc2nnc(N(C)CCCO)c3ccc(Cl)cc23)cc1Cl` returned a melting point of 115 to 117 °C.

`CCCCc1ncc(/C=C(\Cc2cccs2)C(=O)O)n1Cc1ccc(C(=O)OC)cc1` registered a melting point of 217 to 220 °C.

The compound `C=CCOc1ccc(COc2ccc(CC(=O)O)cc2Cl)cc1` showed a melting point of 106 to 107 °C.

`Cc1cccc(NC(=O)NCC(=O)N(CC(=O)OC(C)(C)C)c2cccc(OC(F)(F)F)c2)c1` yielded a melting point of 125 °C.

On to `COC(=O)CCCc1cc2nc(Cl)ccc2n1S(=O)(=O)c1cccc2nsnc12`, for which the melting point stood at 112 °C.

The compound `O=C1NC(=O)C(=Cc2ccc(OCCN3CCN(c4ccccn4)CC3)cc2)S1` displayed a melting point of 158 to 160 °C.

With `COc1cccc(C2=CCN(C(=O)CSCc3c[nH]c4ccccc34)CC2)c1`, the melting point was 115 to 117 °C.

In turn, `CC(=NNc1ccc(-c2n[nH]c(=O)cc2C)cc1)c1ccc(O)cc1O` displayed a melting point of 299 to 303 °C.

`O=C(C=Cc1ccccc1C(F)(F)F)C=Cc1ccccc1C(F)(F)F` returned a melting point of 131 to 133 °C.

`CCOC(=O)CSc1nc(Cl)cc(NN=Cc2ccc(F)cc2)n1` came in with a melting point of 146 to 149 °C.

`CO/C=C(/C(=O)OC)n1cccc1C=O` returned a melting point of 58 to 59 °C.

`CC(C)(C)OC(=O)Cn1c(C(=O)O)cc2cc(NC(=O)OC(C)(C)C)ccc21` showed a melting point of over 300 °C.

The compound `Cc1ccc(S(=O)(=O)NC(Cc2ccccc2)C(=O)Nc2c(C(C)C)cccc2C(C)C)cc1` (configuration not stated) registered a melting point of 183 to 184 °C.

`CCOC(=O)c1cn(-c2ccc(F)cc2)c2cc(F)c(F)c(C)c2c1=O` came in with a melting point of 256 to 259 °C.

`COCC(=O)N(c1c(C)cccc1N)C(C)C(=O)OC` (configuration not stated) yielded a melting point of 86 to 88 °C.

Compound `CCC1SC(=O)N(Cc2ccc(N)cc2)N=C1c1ccc(OC)c(OC)c1` (configuration not stated) displayed a melting point of 105 °C.

`COc1cc2c(cc1OC)-c1c(OC)c(OC)cc3c1C(C2)N(C)CC3O` (single isomer, unassigned; (+)) had a melting point of 180 to 182 °C.

As to `Clc1ccc2c(c1)-c1[nH]ncc1CS2`, the melting point lay within 205 to 206 °C.

`O=[N+]([O-])c1ccc2c(c1)C1OC1CCO2` (configuration not stated) came in with a melting point of 121 to 123 °C.

Consider `S=C1Nc2c(Cl)cccc2CS1`, for which the melting point was in the range of 125 to 126 °C.

As for `O=c1cc(C=Cc2ccccc2)oc2ccc(O)cc12`, the melting point was 230 °C.

`CC(C)NCC#CC1(O)c2ccccc2-c2ccccc21` returned a melting point of 135 to 137 °C.

The compound `Nc1nc(-c2ccc(CCNC(=O)C(F)(F)F)cc2)cs1` displayed a melting point of 180 to 182 °C.

The compound `COC(SC)C(=O)c1[nH]c2cc(Br)c(Cl)cc2c1-c1ccccc1` (configuration not stated) displayed a melting point of 145 to 147 °C.

In turn, `CN(C)CCc1cn(C)c2c(F)ccc(OCc3ccccc3)c12` returned a melting point of 60 to 62 °C.

`C=CCN(CC=C)c1nc(NC(=O)CC)n2oc(=O)nc2n1`: the melting point was in the range of 157 to 159 °C.

In turn, `C=CCN1C(C)(C)CC(=C2CC(C)(C)N(CC=C)C(C)(C)C2)CC1(C)C` showed a melting point of 147 to 148 °C.

Consider `O=[N+]([O-])c1cccc(Nc2nccc(-c3ccccn3)n2)c1`, for which the melting point lay in the range of 213 to 219 °C.

For the compound `CCC(C)c1ccc(N(Cc2ccccc2)C(=N)N)cc1` (configuration not stated), the melting point was 65 to 67 °C.

Compound `CC1(N2Cc3cc(CNC(=O)c4ccc(OC(F)(F)F)cc4)ccc3C2=O)CCC(=O)NC1=O` (configuration not stated) registered a melting point of 224 to 226 °C.

In turn, `O=Cc1c[nH]c2cccc(OCC3CO3)c12` (configuration not stated) registered a melting point of 108 to 110 °C.

For `CC12CC3CC(C)(C1)CC(C(=O)NCc1cccs1)(C3)C2`, the melting point is 101 to 103 °C.

The compound `COCC#CC1=CC(C)(C)Oc2c(OC)cc(Cc3cnc(N)nc3N)cc21` gave a melting point of 236 to 237 °C.

As to `O=S1(=O)c2cccc3cccc(c23)N1CCCN1CC=C(c2ccccc2)CC1`, the melting point is 88 °C.

Consider `CN(C)c1ccc(NC(=O)CCn2c(-c3ccc(Cl)cc3)nc3cccnc32)cc1`, for which the melting point lay within 216 to 218 °C.

For `COCCn1nc(-c2sc(C(=O)NCc3ccccn3)nc2-c2ccccc2)ccc1=O`, the melting point was in the range of 168 to 170 °C.

As to `O=C(c1ccccc1)c1c[nH]c2ncnc(Nc3cccc(CCO)c3)c12`, the melting point is over 300 °C.
